Entries after “also recorded” stand apart in the source; their conditions may differ. Like-named read-outs stand apart in the source and are kept apart here.
Legend:
healthy subjects [1] = assay: Study 1: safety and tolerability, single doses, healthy subjects
Procedure: (§3) Study 1 was designed as a single-site, randomized, double-blind, placebo-controlled study. […] Study drug was administered following at least 10 hours of fasting. […] Subjects were confined to the study site and supervised for approximately 8 consecutive days.
Safety was evaluated based on assessments of adverse events, vital signs, physical examination, laboratory metrics, and 12-lead electrocardiogram (ECG). All subjects who received at least one dose of study drug were included in the safety analyses. Subjects who were administered placebo were pooled into a single group within each study or study part. Laboratory test values and vital signs measurements that were above or below the reference range were identified. Subjects were followed-up for a total of 7 days in Study 1, 35 days in Study 2-Part 1, and 57 days in Study 2-Part 2.

healthy subjects [2] = assay: Study 2-Part 1: safety and tolerability, multiple doses, healthy subjects; assay type: in vivo, human
Procedure: (§4) Study drug was administered approximately 30 minutes after a standard breakfast (in the morning) or a snack (in the evening). […] Subjects were confined to the study site and supervised for approximately 18 days.
Safety was evaluated based on assessments of adverse events, vital signs, physical examination, laboratory metrics, and 12-lead electrocardiogram (ECG). All subjects who received at least one dose of study drug were included in the safety analyses. Subjects who were administered placebo were pooled into a single group within each study or study part. Laboratory test values and vital signs measurements that were above or below the reference range were identified. […] In subjects with RA, the severity of adverse events were rated by the investigator as mild (transient and easily tolerated by the subject), moderate (causes subject discomfort and interrupts the subject's usual activities), or severe (causes considerable interference with the subject's usual activities and may be incapacitating or life-threatening).

[3] = test system: subjects with mild to moderate RA; assay: Study 2-Part 2: safety and tolerability, subjects with RA; assay type: in vivo, human
Procedure: (§5) Subjects received study drug for 26 consecutive days (Study Days 3 through 28) and a single morning dose of study drug on Study Day 29. […] Subjects were confined to the study site for a total of 10 days—from Day 1 to Day 4 and from Day 27 to Day 31.
Safety was evaluated based on assessments of adverse events, vital signs, physical examination, laboratory metrics, and 12-lead electrocardiogram (ECG). All subjects who received at least one dose of study drug were included in the safety analyses. Subjects who were administered placebo were pooled into a single group within each study or study part. Laboratory test values and vital signs measurements that were above or below the reference range were identified. Subjects were followed-up for a total of 7 days in Study 1, 35 days in Study 2-Part 1, and 57 days in Study 2-Part 2. […] In subjects with RA, the severity of adverse events were rated by the investigator as mild (transient and easily tolerated by the subject), moderate (causes subject discomfort and interrupts the subject's usual activities), or severe (causes considerable interference with the subject's usual activities and may be incapacitating or life-threatening).

[4] = Study 1: single-dose escalation PK in healthy subjects
Procedure: as §3
(§6) Samples quantified below the LLOQ were reported as zero.
(§7) Renal clearance (CLr) was calculated as Au,0-12/AUC0-12 at steady state.
(§8) Statistical analyses were performed using SAS software (Version 9.3; SAS institute Inc., Cary, N.C., USA).

clinical [5] = conditions: human, oral; for AUC(0-t) / half-life: plasma; for CL renal: urine and plasma
Procedure: (§9) Both evaluations followed randomized, double-blind, placebo-controlled designs. Part 1 was conducted at PPD Development (Austin, Tex.) and Part 2 was conducted at two sites: Aspen Clinical Research (Orem, Utah) and Altoona Center for Clinical Research (Duncansville, Pa.). Study protocol and informed consents were approved by RCRC IRB (Austin, Tex.) and Quorum Review IRB (Seattle, Wash.).
as §4, §6, §7, §8

clinical [6] = conditions: human, oral; for half-life: plasma; for CL renal: urine and plasma, CLr
Procedure: Both evaluations followed randomized, double-blind, placebo-controlled designs. Part 1 was conducted at PPD Development (Austin, Tex.) and Part 2 was conducted at two sites: Aspen Clinical Research (Orem, Utah) and Altoona Center for Clinical Research (Duncansville, Pa.).
as §5, §6, §7

[7] = Pharmacokinetic interaction of Compound 1 and methotrexate (dose-normalized AUC); assay type: in vivo, human; conditions: FIG. 35A
[8] = Study 2-Part 1: multiple-dose escalation PK in healthy subjects
Procedure: as §9, §4, §6, §7, §8

clinical [9] = conditions: human, plasma, oral, 48 mg
Procedure: as §3, §6, §7, §8

[10] = Physical stability of solid state forms (dehydration, desolvation, conversion); assay type: physicochemical; conditions: general statement on the solid state form
Procedure: The Tartrate Hydrate dehydrated into Amorphous at low relative humidity and high temperature, e.g., <10% RH at 25° C. Shearing and compression potentially cause conversion to the amorphous tartrate, and therefore it is not suitable for compressing into tablet form. Additionally, the filter cake solidified during drying, resulting in the need for additional controls during drying.
In addition, Freebase Hydrate Form C can be grown into different particle sizes.
Freebase Anhydrate Form D can be manufactured only when the water content of the crystallization solvent is low, and will convert to Freebase Hydrate Form C in solutions at high water content. The manufacture of Freebase Anhydrate Form D thus requires strict control of water content. Freebase Anhydrate Form D is slow to crystallize, and difficult to manufacture in higher yield. […] Freebase Hydrate Form C will convert to Freebase Anhydrate Form D in a solution of ethyl acetate with low water content.
The resulting amorphous hydrochloride is hygroscopic. Yields obtained for each of the crystalline hydrochlorides generally have been in the 10% to 15% range.

[11] = Solubility of solid state forms; assay type: physicochemical
[12] = Stability of solid state forms to light and peroxide; assay type: physicochemical
Procedure: (§1) The Amorphous Freebase, however, is hygroscopic and can comprise as much as 12% by weight water at 25° C./90% relative humidity. Environmental controls potentially are required to ensure appropriate control of potency and water content during storage, dispensing, and handling of the Amorphous Freebase.
(§2) The Tartrate Hydrate, however, potentially will convert to an amorphous tartrate below 10% relative humidity, when heated, or when compressed or under shear.

[13] = Chemical stability of solid state forms in closed vials at controlled temperature and relative humidity; assay type: physicochemical
Procedure: as §1, §2

[14] = Solid state accelerated stability study; assay type: physicochemical; conditions: for Growth of degradation products: open and closed glass vials
Procedure: Samples (approximately 1 mg to 2 mg) of the solid state form were weighed into glass vials and tested as described below.

[15] = Moisture sorption isotherm; assay type: physicochemical; conditions: below 10% relative humidity at 25° C.
Procedure: Moisture vapor isotherm data were collected with a DVS Advantage (Surface Measurement Systems Ltd, Alperton, United Kingdom). The sample powder (5 mg to 20 mg) was loaded on a tared pan of the DVS Advantage. The moisture sorption isotherm data were collected from 30-0-90-0-30% relative humidity in 10% relative humidity intervals. For each step, the dm/dt criteria was 0.001% over 5 minutes, a minimum dm/dt time of 30 minutes, and a maximum dm/dt of 120 minutes. Data was collected isothermally at 25° C. with a nitrogen flow rate of 200 cm^3/minute. The post DVS sample was kept at approximately 30% relative humidity before PXRD analysis.

[16] = Hygroscopicity / moisture sorption isotherm of solid state forms; assay type: physicochemical; conditions: general statement on the solid state form
Excerpt: FIG. 6A is a moisture sorption isotherm corresponding to the Amorphous Freebase (via dehydration).
FIG. 6C is a moisture sorption isotherm corresponding to the Tartrate Hydrate.
FIG. 6D is a moisture sorption isotherm corresponding to the Freebase Anhydrate Form D.
In one embodiment, the Tartrate Hydrate has a moisture sorption isotherm profile showing a weight gain of about 1% to about 2% when relative humidity is increased from about 10% relative humidity to about 90% relative humidity at a temperature of 25° C.

[17] = multiple twice-daily doses 3 mg
[18] = multiple twice-daily doses 6 mg
[19] = multiple twice-daily doses 12 mg
[20] = multiple twice-daily doses 24 mg
[21] = multiple twice-daily doses, Total Compound 1
[22] = single 48 mg dose, healthy subjects
[23] = on average across all dose groups
[24] = 6 mg BID, Day 14, healthy subjects
[25] = 12 mg BID, Day 14, healthy subjects
[26] = 24 mg BID, Day 14, healthy subjects

SMILES: CC[C@@H]1CN(C(=O)NCC(F)(F)F)C[C@@H]1c1cnc2cnc3[nH]ccc3n12 [Compound 1, (3S,4R)-3-ethyl-4-(3H-imidazo[1,2-a]pyrrolo[2,3-e]pyrazin-8-yl)-N-(2,2,2-trifluoroethyl)pyrrolidine-1-carboxamide]
- Headache, subjects (healthy subjects [1]; single dose 48 ng): 2 (33.3%)
- Presyncope, subjects (healthy subjects [1]; single dose 48 ng): 0
- Headache, subjects (healthy subjects [1]; single dose 1 mg): 0
- Presyncope, subjects (healthy subjects [1]; single dose 1 mg): 0
- Headache, subjects (healthy subjects [1]; single dose 3 mg): 0
- Presyncope, subjects (healthy subjects [1]; single dose 3 mg): 0
- Headache, subjects (healthy subjects [1]; single dose 6 mg): 0
- Presyncope, subjects (healthy subjects [1]; single dose 6 mg): 1 (16.7%)
- Headache, subjects (healthy subjects [1]; single dose 12 mg): 0
- Presyncope, subjects (healthy subjects [1]; single dose 12 mg): 0
- Headache, subjects (healthy subjects [1]; single dose 24 mg): 0
- Presyncope, subjects (healthy subjects [1]; single dose 24 mg): 1 (16.7%)
- Headache, subjects (healthy subjects [1]; single dose 36 mg): 0
- Presyncope, subjects (healthy subjects [1]; single dose 36 mg): 0
- Tolerability (healthy subjects [1]; single doses up to 48 mg and multiple twice daily doses up to 24 mg, immediate-release formulation): well-tolerated
- dose-limiting toxicities or safety concerns (healthy subjects [1]; single doses up to 48 mg or multiple doses up to 24 mg twice daily): no dose-limiting toxicities or safety concerns
- Presyncope, subjects (healthy subjects [1]; single doses, Total Compound 1): 2 (4.8%)
- Severity of TEAEs (healthy subjects [1]; single doses, healthy subjects): mild
- maximum tolerated dose (healthy subjects [1]; single or multiple dose studies): not reached
- Abdominal Discomfort, subjects (healthy subjects [2]; [17]): 0
- Abdominal Pain, subjects (healthy subjects [2]; [17]): 0
- Diarrhoea, subjects (healthy subjects [2]; [17]): 0
- Headache, subjects (healthy subjects [2]; [17]): 0
- Nasopharyngitis, subjects (healthy subjects [2]; [17]): 1 (12.5%)
- Abdominal Discomfort, subjects (healthy subjects [2]; [18]): 0
- Abdominal Pain, subjects (healthy subjects [2]; [18]): 1 (12.5%)
- Diarrhoea, subjects (healthy subjects [2]; [18]): 1 (12.5%)
- Headache, subjects (healthy subjects [2]; [18]): 2 (25.0%)
- Nasopharyngitis, subjects (healthy subjects [2]; [18]): 1 (12.5%)
- Abdominal Discomfort, subjects (healthy subjects [2]; [19]): 0
- Abdominal Pain, subjects (healthy subjects [2]; [19]): 0
- Diarrhoea, subjects (healthy subjects [2]; [19]): 1 (12.5%)
- Headache, subjects (healthy subjects [2]; [19]): 2 (25.0%)
- Nasopharyngitis, subjects (healthy subjects [2]; [19]): 0
- Abdominal Discomfort, subjects (healthy subjects [2]; [20]): 0
- Abdominal Pain, subjects (healthy subjects [2]; [20]): 1 (12.5%)
- Diarrhoea, subjects (healthy subjects [2]; [20]): 0
- Headache, subjects (healthy subjects [2]; [20]): 1 (12.5%)
- Nasopharyngitis, subjects (healthy subjects [2]; [20]): 0
- Abdominal Discomfort, subjects (healthy subjects [2]; [21]): 0
- Abdominal Pain, subjects (healthy subjects [2]; [21]): 2 (6.3%)
- Diarrhoea, subjects (healthy subjects [2]; [21]): 2 (6.3%)
- Headache, subjects (healthy subjects [2]; [21]): 5 (15.6%)
- Nasopharyngitis, subjects (healthy subjects [2]; [21]): 2 (6.3%)
- changes in hematologic parameters (healthy subjects [2]; multiple-dose administration in healthy subjects for 14 days): no clinically significant changes
- subjects with at least one TEAE ([3]; Compound 1 dose groups (total of 11 subjects with RA)): Five subjects
- number of TEAEs reported ([3]; Compound 1 dose groups, subjects with RA): 7
- CL/F [4, 22]: 47.6 ± 8.97 L/h
- dose-normalized AUC∞ lower than that following 3 mg dose [4, 22]: 40%
- Dose proportionality of exposures ([4]; single dose range of 3 to 36 mg and multiple dose range of 3 mg to 24 mg BID): dose proportional
- AUC(0-t) (clinical [5]; 3 mg): 78.3 ± 20.3 ng·h/mL
- half-life (clinical [5]; 3 mg): 3.2 ± 0.4 h
- AUC(0-t) (clinical [5]; 6 mg): 138 ± 16.7 ng·h/mL
- half-life (clinical [5]; 6 mg): 3.3 ± 0.3 h
- half-life (clinical [5]; 12 mg): 3.2 ± 0.5 h
- CL renal (clinical [5]; 3 mg): 125 mL/min
- CL renal (clinical [5]; 12 mg): 162 mL/min
- Ctrough (6 mg BID, Day 28, subjects with RA): 5.81 ng/mL
- AUC0-12 (12 mg BID, Day 28, subjects with RA): 334 ng·h/mL
- Ctrough (12 mg BID, Day 29, subjects with RA): 6.44 ng/mL
- Ctrough (24 mg BID, Day 28, subjects with RA): 15.3 ng/mL
- Ctrough (24 mg BID, Day 29, subjects with RA): 14.9 ng/mL
- apparent oral clearance lower in subjects with RA compared to healthy subjects [23]: 23%
- higher exposure in subjects with RA than in healthy subjects [23]: approximately 30%
- half-life (clinical [6]; 6 mg, t1/2F (functional half-life), 6 mg BID, Day 29, subjects with RA, harmonic mean): 3.5 h
- half-life (clinical [6]; 12 mg, t1/2F (functional half-life), 12 mg BID, Day 29, subjects with RA, harmonic mean): 3.7 h
- half-life (clinical [6]; 24 mg, t1/2F (functional half-life), 24 mg BID, Day 29, subjects with RA, harmonic mean): 3.6 h
- half-life (clinical [6]; functional half-life, subjects with RA on stable doses of methotrexate): ~4 h
- CL renal (clinical [6]; 6 mg, 6 mg BID, Day 28, subjects with RA): 116 mL/min
- CL renal (clinical [6]; 6 mg, 6 mg BID, Day 29, subjects with RA): 82.2 mL/min
- CL renal (clinical [6]; 12 mg, 12 mg BID, Day 28, subjects with RA): 104 mL/min
- CL renal (clinical [6]; 12 mg, 12 mg BID, Day 29, subjects with RA): 82.7 mL/min
- CL renal (clinical [6]; 24 mg, 24 mg BID, Day 28, subjects with RA): 105 mL/min
- effect of concomitant methotrexate administration on Compound 1 dose-normalized AUC [7]: lack of effect
- Ctrough ([8]; 3 mg BID, Day 14, healthy subjects): 1.46 ± 0.50 ng/mL
- CL/F [8, 24]: 43.9 ± 5.4 L/h
- Ctrough [8, 24]: 2.29 ± 0.41 ng/mL
- CL/F [8, 25]: 45.5 ± 8.04 L/h
- Ctrough [8, 25]: 4.54 ± 1.55 ng/mL
- CL/F [8, 26]: 46.1 ± 6.44 L/h
- Ctrough [8, 26]: 9.50 ± 2.57 ng/mL
- t1/2F (functional half-life) ([8]; 24 mg BID, Day 14, healthy subjects, harmonic mean ± pseudo-SD): 3.3 ± 0.4 h
- functional half-life ([8]; estimated from Cmax to Ctrough ratio at steady-state, healthy volunteers): approximately 3 hours
- pre-dose concentrations on Study Day 13 lower compared with Study Day 5 ([8]; multiple dosing, healthy volunteers): 13%
- AUC(0-inf) (clinical [9]): 1040 ± 174 ng·h/mL
- AUC(0-t) (clinical [9]): 1030 ± 174 ng·h/mL

SMILES: CC[C@@H]1CN(C(=O)NCC(F)(F)F)C[C@@H]1c1cnc2cnc3[nH]ccc3n12.O.O.O.O.O=C(O)C(O)C(O)C(=O)O [Tartrate Hydrate, (3S,4R)-3-ethyl-4-(3H-imidazo[1,2-a]pyrrolo[2,3-e]pyrazin-8-yl)-N-(2,2,2-trifluoroethyl)pyrrolidine-1-carboxamide tartrate tetrahydrate]
- physical stability [10]: lack of physical stability
- BCS class [11]: Class I
- Solubility ([11]; Amorphous Freebase: relative to the corresponding crystalline forms): high solubility; also recorded: good solubility
- stability to light and peroxide [12]: acceptable stability
- degradation observed in closed vials ([13]; closed vials, 30° C./65% relative humidity and 40° C./75% relative humidity over 12 weeks, 50° C./75% relative humidity over 6 weeks): no degradation
- chemical stability ([13]; general statement on the solid state form): acceptable chemical stability
- Growth of degradation products ([14]; 25° C./60% relative humidity, up to 24 months): no growth of degradation products
- Growth of degradation products ([14]; 40° C./75% relative humidity, at least one month): no growth of degradation products
- Growth of degradation products ([14]; 50° C./75% relative humidity, up to six weeks): no growth of degradation products
- chemical stability ([14]; solid state accelerated stability study): acceptable
- Change in attributes evaluated (description, crystal form, assay, impurities and water content) ([14]; storage conditions of the accelerated stability study): No material change
- Dehydration in moisture sorption isotherm analysis [15]: dehydrates to an amorphous tartrate
- hygroscopicity [16]: not hygroscopic

Source: patent US10730883B2 (AbbVie Inc., priority 2015, dated 2020)
